# Experimental data published in paper PMC13110330, “Design, Synthesis, and Evaluation of New Polyhydroxylated B is‐Chalcones as Potential COX‐2 Selective Inhibitors” (Chemmedchem, 2026).
# What was measured:
# human recombinant COX‐1 = molecular target: T1, human recombinant COX‐1 (Homo sapiens, UniProt P23219); assay: In vitro fluorometric COX‐1 inhibitory assay; format: biochemical; settings: mean ± SEM; for IC50: human recombinant enzyme
# T1 construct: purchased Sigma Chemical Co. (St. Louis, MO, USA)
# T1 sequence (P23219 24-599): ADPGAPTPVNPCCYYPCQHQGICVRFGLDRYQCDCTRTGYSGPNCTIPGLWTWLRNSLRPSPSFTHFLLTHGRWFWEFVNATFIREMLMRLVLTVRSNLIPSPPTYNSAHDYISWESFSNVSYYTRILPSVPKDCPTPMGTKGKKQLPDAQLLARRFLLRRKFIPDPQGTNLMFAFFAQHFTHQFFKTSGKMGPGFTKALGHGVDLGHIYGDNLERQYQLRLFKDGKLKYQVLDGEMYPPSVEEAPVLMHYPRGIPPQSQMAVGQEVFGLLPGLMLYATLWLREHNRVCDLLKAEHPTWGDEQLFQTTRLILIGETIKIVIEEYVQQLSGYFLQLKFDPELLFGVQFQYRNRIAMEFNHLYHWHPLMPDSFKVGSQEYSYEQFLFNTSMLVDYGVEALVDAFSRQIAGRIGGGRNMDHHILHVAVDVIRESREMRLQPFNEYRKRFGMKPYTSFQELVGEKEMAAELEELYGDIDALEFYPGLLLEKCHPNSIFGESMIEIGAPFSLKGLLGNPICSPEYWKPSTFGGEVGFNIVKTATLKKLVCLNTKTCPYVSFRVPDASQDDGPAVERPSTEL
# Description: The COX‐1/2 inhibitory potential of bis‐chalcones was assessed with an in vitro fluorometric assay, based on the protocol outlined by Sigma‐Aldrich in their COX‐2 Inhibitor Screening Kit.
# To conduct the assay, human recombinant COX‐1 or COX‐2 (2.5 ng/µL) was combined with diluted hemin (1 µM), COX cofactor, and ampliflu red (100 µM) in assay buffer (trizma hydrochloride pH = 8.0 and EDTA 0.1 µM).
# human recombinant COX‐2 = molecular target: T2, human recombinant COX‐2 (Homo sapiens, UniProt P35354); assay: In vitro fluorometric COX‐2 inhibitory assay and selectivity index; format: biochemical; settings: for IC50: human recombinant enzyme
# T2 construct: purchased Sigma Chemical Co. (St. Louis, MO, USA)
# T2 sequence (P35354 18-604): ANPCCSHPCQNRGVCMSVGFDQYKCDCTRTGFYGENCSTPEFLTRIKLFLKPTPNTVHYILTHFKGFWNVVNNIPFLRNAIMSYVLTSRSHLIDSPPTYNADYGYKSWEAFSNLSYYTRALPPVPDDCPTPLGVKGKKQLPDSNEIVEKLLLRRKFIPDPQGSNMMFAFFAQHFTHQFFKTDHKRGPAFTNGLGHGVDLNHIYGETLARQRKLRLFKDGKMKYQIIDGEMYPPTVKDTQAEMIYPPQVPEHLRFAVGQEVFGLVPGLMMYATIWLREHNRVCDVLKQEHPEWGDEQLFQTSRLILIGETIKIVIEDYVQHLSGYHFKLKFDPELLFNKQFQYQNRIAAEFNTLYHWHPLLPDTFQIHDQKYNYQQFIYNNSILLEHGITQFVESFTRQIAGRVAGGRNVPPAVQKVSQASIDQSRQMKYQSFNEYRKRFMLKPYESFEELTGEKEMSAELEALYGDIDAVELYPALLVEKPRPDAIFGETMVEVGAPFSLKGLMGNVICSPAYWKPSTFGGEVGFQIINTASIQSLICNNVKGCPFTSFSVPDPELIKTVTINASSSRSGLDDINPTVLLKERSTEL
# COX‐2 = test system: COX‐2; set-up: method as in PMID 824724; settings: measured in rabbit cell; cited from earlier work
# [1] = at 100 μM, highest tested concentration
# [2] = at 100 μM, highest tested concentration, mean ± SEM
# [3] = SI = % inhibition COX‐2 / % inhibition COX‐1 at 100 µM
Compound,inhibition at 100 µM (human recombinant COX‐1; [1]) [%],inhibition at 100 µM (human recombinant COX‐2; [2]) [%],also measured
"COc1ccc(/C=C/C(=O)c2c(OC)cc(OC)c(C(=O)/C=C/c3ccc(OC)c(OC)c3)c2OC)cc1OC [Compound 10, (2E,2′E)−1,1′‐(2,4,6‐Trimethoxy‐1,3‐phenylene)bis[3‐(3,4‐dimethoxyphenyl)prop‐2‐en‐1‐one]]",< 30,< 30,
"COc1ccc(/C=C/C(=O)c2c(OC)cc(OC)c(C(=O)/C=C/c3ccc(OC)cc3)c2OC)cc1 [Compound 11, (2E,2′E)−1,1′‐(2,4,6‐Trimethoxy‐1,3‐phenylene)bis[3‐(4‐methoxyphenyl)prop‐2‐en‐1‐one]]",< 30,< 30,
"COc1cc(OC)c(C(=O)/C=C/c2ccc(O)cc2)c(OC)c1C(=O)/C=C/c1ccc(O)cc1 [Compound 12, (2E,2′E)−1,1′‐(2,4,6‐Trimethoxy‐1,3‐phenylene)bis[3‐(4‐hydroxyphenyl)prop‐2‐en‐1‐one]]",~50,~50,Selectivity index (SI) (human recombinant COX‐2; [3]): 0.9
"COc1cc(/C=C/C(=O)c2c(OC)cc(OC)c(C(=O)/C=C/c3ccc(O)c(OC)c3)c2OC)ccc1O [Compound 13, (2E,2′E)−1,1′‐(2,4,6‐Trimethoxy‐1,3‐phenylene)bis[3‐(4‐hydroxy‐3‐methoxyphenyl)prop‐2‐en‐1‐one]]",,,IC50 (human recombinant COX‐1): 24 ± 3 µM; Selectivity index (SI) (human recombinant COX‐2; SI = IC50 COX‐1 / IC50 COX‐2): 4.4; IC50 (human recombinant COX‐2; mean ± SEM): 5.5 ± 0.7 µM
"COc1cc(OC)c(C(=O)/C=C/c2ccc(Br)cc2)c(OC)c1C(=O)/C=C/c1ccc(Br)cc1 [Compound 14, (2E,2′E)−1,1′‐(2,4,6‐Trimethoxy‐1,3‐phenylene)bis[3‐(4‐bromophenyl)prop‐2‐en‐1‐one]]",< 30,< 30,
"COc1cc(OC)c(C(=O)/C=C/c2cccc(Cl)c2)c(OC)c1C(=O)/C=C/c1cccc(Cl)c1 [Compound 15, (2E,2′E)−1,1′‐(2,4,6‐Trimethoxy‐1,3‐phenylene)bis[3‐(3‐chlorophenyl)prop‐2‐en‐1‐one]]",< 30,< 30,
"COc1ccc(/C=C/C(=O)c2c(O)cc(O)c(C(=O)/C=C/c3ccc(OC)cc3)c2O)cc1 [Compound 27, (2E,2′E)−1,1′‐(2,4,6‐Trihydroxy‐1,3‐phenylene)bis[3‐(4‐methoxyphenyl)prop‐2‐en‐1‐one]]",,,IC50 (human recombinant COX‐1): 48 ± 2 µM; Selectivity index (SI) (human recombinant COX‐2; SI = IC50 COX‐1 / IC50 COX‐2): 1.2; IC50 (human recombinant COX‐2; mean ± SEM): 44 ± 3 µM
"COc1cc(/C=C/C(=O)c2c(O)cc(O)c(C(=O)/C=C/c3ccc(O)c(OC)c3)c2O)ccc1O [Compound 28, (2E,2′E)−1,1′‐(2,4,6‐Trihydroxy‐1,3‐phenylene)bis[3‐(4‐hydroxy‐3‐methoxyphenyl)prop‐2‐en‐1‐one]]",,,IC50 (human recombinant COX‐1): 37 ± 4 µM; Selectivity index (SI) (human recombinant COX‐2; SI = IC50 COX‐1 / IC50 COX‐2): 2.6; IC50 (human recombinant COX‐2; mean ± SEM): 14.6 ± 0.5 µM
Cc1c(Cl)cccc1Nc1ccccc1C(=O)O [tolfenamic acid],,,IC50 (COX‐2): 0.64 µM
"(2E,2′E)−1,1′‐{2,4,6‐Tris[(2‐methoxyethoxy)methoxy]−1,3‐phenylene}bis(3‐{3,4‐bis[(2‐methoxyethoxy)methoxy]phenyl}prop‐2‐en‐1‐one) [Compound 24]",,,"COX‐1 Inhibition, % (human recombinant COX‐1; [1]): <30% ^100 μM; COX‐2 Inhibition, % (human recombinant COX‐2; [2]): <30% ^100 μM"

# Further lines, with some results ahead:
inhibition at 100 µM (human recombinant COX‐1; [1]) [%],inhibition at 100 µM (human recombinant COX‐2; [2]) [%],Compound,also measured
< 30,< 30,"COCOc1cc(OCOC)c(C(=O)/C=C/c2ccc(OC)c(OC)c2)c(OCOC)c1C(=O)/C=C/c1ccc(OC)c(OC)c1 [Compound 19, (2E,2′E)−1,1′‐[2,4,6‐Tris(methoxymethoxy)−1,3‐phenylene]bis[3‐(3,4‐dimethoxyphenyl)prop‐2‐en‐1‐one]]",
< 30,< 30,"COCOc1cc(OCOC)c(C(=O)/C=C/c2ccc(OC)cc2)c(OCOC)c1C(=O)/C=C/c1ccc(OC)cc1 [Compound 20, (2E,2′E)−1,1′‐[2,4,6‐Tris(methoxymethoxy)−1,3‐phenylene]bis[3‐(4‐methoxyphenyl)prop‐2‐en‐1‐one]]",
< 30,< 30,"COCOc1ccc(/C=C/C(=O)c2c(OCOC)cc(OCOC)c(C(=O)/C=C/c3ccc(OCOC)c(OC)c3)c2OCOC)cc1OC [Compound 21, (2E,2′E)−1,1′‐[2,4,6‐Tris(methoxymethoxy)−1,3‐phenylene]bis{3‐[3‐methoxy‐4‐(methoxymethoxy)phenyl]prop‐2‐en‐1‐one}]",
< 30,< 30,"COCOc1cc(OCOC)c(C(=O)/C=C/c2ccc(Br)cc2)c(OCOC)c1C(=O)/C=C/c1ccc(Br)cc1 [Compound 22, (2E,2′E)−1,1′‐[2,4,6‐Tris(methoxymethoxy)−1,3‐phenylene]bis(3‐(4‐bromophenyl)prop‐2‐en‐1‐one)]",
< 30,< 30,"COCOc1ccc(/C=C/C(=O)c2c(OCOC)cc(OCOC)c(C(=O)/C=C/c3ccc(OCOC)cc3)c2OCOC)cc1 [Compound 25, (2E,2′E)−1,1′‐[2,4,6‐Tris(methoxymethoxy)−1,3‐phenylene]bis{3‐[4‐(methoxymethoxy)phenyl]prop‐2‐en‐1‐one}]",
40 to 50,40 to 50,"COc1ccc(/C=C/C(=O)c2c(O)cc(O)c(C(=O)/C=C/c3ccc(OC)c(OC)c3)c2O)cc1OC [Compound 26, (2E,2′E)−1,1′‐(2,4,6‐Trihydroxy‐1,3‐phenylene)bis[3‐(3,4‐dimethoxyphenyl)prop‐2‐en‐1‐one]]",Selectivity index (SI) (human recombinant COX‐2; [3]): 0.8
40 to 50,40 to 50,"O=C(/C=C/c1ccc(Br)cc1)c1c(O)cc(O)c(C(=O)/C=C/c2ccc(Br)cc2)c1O [Compound 29, (2E,2′E)−1,1′‐(2,4,6‐Trihydroxy‐1,3‐phenylene)bis[3‐(4‐bromophenyl)prop‐2‐en‐1‐one]]","Selectivity index (SI) (human recombinant COX‐2; [3]): 1.1; COX‐2 IC50, µM or Inhibition, % (human recombinant COX‐2; cell carries superscript 100 μM (highest tested concentration)): 58 ± 3 µM ^100 μM"
